Laboratory results: ChEMBL document CHEMBL1130579, “Design and synthesis of curacin a analogs with varied side chain structures” (Bioorg Med Chem Lett, 1997)
≈ marks a conversion by molar mass, not a printed value.

Columns and labels:
PC-9 = test: Compound was tested for its cytotoxicity against PC-9 human lung cancer cell line; type: functional, cell-based
Tubulin alpha chain [1] = target: T1, Tubulin alpha chain (Sus scrofa, UniProt P02550); test: Compound was tested for inhibitory activity against tubulin polymerization; type: functional
T1 sequence (P02550 whole entry, looked up): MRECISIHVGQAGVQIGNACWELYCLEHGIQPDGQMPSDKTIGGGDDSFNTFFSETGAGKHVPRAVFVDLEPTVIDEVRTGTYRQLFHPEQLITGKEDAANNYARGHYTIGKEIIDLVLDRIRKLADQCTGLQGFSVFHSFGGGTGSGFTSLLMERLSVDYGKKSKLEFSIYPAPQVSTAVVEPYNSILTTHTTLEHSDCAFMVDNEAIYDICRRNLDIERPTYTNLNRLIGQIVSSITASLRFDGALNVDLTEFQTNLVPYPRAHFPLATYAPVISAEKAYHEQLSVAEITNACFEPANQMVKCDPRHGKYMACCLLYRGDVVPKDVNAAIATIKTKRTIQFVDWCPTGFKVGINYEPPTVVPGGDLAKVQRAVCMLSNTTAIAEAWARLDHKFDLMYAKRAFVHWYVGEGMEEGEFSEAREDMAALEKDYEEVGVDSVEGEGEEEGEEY

NCI-H69 = test: Compound was tested for its cytotoxicity against NCI-H69 human lung cancer cell line; type: functional, cell-based
WiDr = test: Compound was tested for its cytotoxicity against WiDr human colon cancer cell line; type: functional, cell-based
[2] = target: Tubulin alpha chain (Sus scrofa) (UniProt P02550); test: Compound was tested for percentage of tubulin polymerized at 50 uM dose of compound; type: functional
Tubulin alpha chain (Sus scrofa), sequence (P02550 whole entry, looked up): as above

Tubulin alpha chain [3] = target: T1, Tubulin alpha chain; test: Compound was evaluated for its anti tubulin activity

SMILES | IC50 (Tubulin alpha chain [1]) [µM] | Activity [2] [%] | IC50 (PC-9) [µg/mL] | IC50 (NCI-H69) [µg/mL] | IC50 (WiDr) [µg/mL] | IC50 (Tubulin alpha chain [3]) [µM]
C=CC[C@@H](CC/C(C)=C/C=C/CC/C=C\[C@@H]1CSC(C2CC2C)=N1)OC (single isomer, unassigned) [CURACIN A] | – | – | – | – | – | 2.5
C/C=C/CC/C=C\[C@@H]1CSC([C@@H]2C[C@@H]2C)=N1 | > 50 | 84 | 37.7 (≈ 160 µM) | 31.7 (≈ 135 µM) | 33.7 (≈ 143 µM) | –
C=CC[C@@H](CC/C(C)=C/C=C/CC/C=C\[C@@H]1CSC([C@@H]2C[C@@H]2C)=N1)OC [CURACIN A] | 2.5 | – | 19.6 (≈ 52.5 µM) | 0.89 (≈ 2.38 µM) | < 0.2 | –
CC(C)=C/C=C/CC/C=C\[C@@H]1CSC([C@@H]2C[C@@H]2C)=N1 | > 50 | 100 | – | – | – | –

Now from value to compound, other results behind:

IC50 (Tubulin alpha chain [1]) [µM] | Activity [2] [%] | SMILES | IC50 (PC-9) [µg/mL] | IC50 (NCI-H69) [µg/mL] | IC50 (WiDr) [µg/mL] | IC50 (Tubulin alpha chain [3]) [µM]
> 50 | 93 | C[C@H]1C[C@H]1C1=N[C@H](/C=C\CCCc2ccccc2)CS1 | 24 (≈ 84 µM) | 45.2 (≈ 158 µM) | 19.3 (≈ 67.6 µM) | –
> 50 | 85 | CCCCCCCc1cccc(CC/C=C\[C@@H]2CSC([C@@H]3C[C@@H]3C)=N2)c1 | 35.5 (≈ 96.1 µM) | 64.7 (≈ 175 µM) | 69.3 (≈ 187 µM) | –
> 50 | 95 | CCCCCCc1ccc(CC/C=C\[C@@H]2CSC([C@@H]3C[C@@H]3C)=N2)cc1 | 50.2 (≈ 141 µM) | 76.5 (≈ 215 µM) | 42.5 (≈ 119 µM) | –
> 50 | 100 | CCCCCCCCCCCC/C=C\[C@@H]1CSC([C@@H]2C[C@@H]2C)=N1 | 77.2 (≈ 230 µM) | 54.1 (≈ 161 µM) | 84.9 (≈ 253 µM) | –
> 50 | 71 | C[C@H]1C[C@H]1C1=N[C@H](/C=C\CCc2ccccc2)CS1 | 30.1 (≈ 111 µM) | 34.1 (≈ 125 µM) | 19.6 (≈ 72.3 µM) | –
